Literature values in patent publication US20200323770A1, “WOUND DEBRIDEMENT COMPOSITION AND METHOD FOR TREATING WOUNDS” (Hollister Incorporated, priority 2017, published 2020).

Conditions: in vitro; increasing papain concentrations 200-1,600 USP units/mg in 10% urea

papain
increased: collagenolysis | elastinolysis | fibrinolysis
